In ChEMBL document CHEMBL3881525, “Analogs of dehydrophenylahistins and their therapeutic use” (2007):
In brackets after ≈: the same amount, converted by molar mass. Activity calls are given as the source filed them. The rule behind the calls is not given here.

Assays:
[1] = Cytotoxicity against human HT-29 cells assessed as reduction in cell viability measured after 48 hrs by resazurin dye-based fluorometric analysis relative to control; format: functional
[2] = tested on: HeLa; test: Effect on cell cycle progression in human HeLa cells assessed as increase in 4N cells at 100 nM; format: functional, cell-based
[3] = Cytotoxicity against human MDA-MB-231 cells assessed as reduction in cell viability measured after 48 hrs by resazurin dye-based fluorometric analysis; format: functional; conditions: MDA-MB-231, 48 h
[4] = Cytotoxicity against human OVCAR3 cells assessed as reduction in cell viability measured after 48 hrs by resazurin dye-based fluorometric analysis; format: functional; conditions: OVCAR-3, 48 h
[5] = Antiproliferative activity against taxol-resistant human MES-SA/Dx5 cells expressing MDR1 mRNA and P-gp; format: functional, cell-based
[6] = molecular target: T1, Tubulin (Homo sapiens) (UniProt P68371+Q9H4B7+P0DPH7+P68366+Q13509+Q71U36+P04350+Q3ZCM7+P07437+P68363+Q9BQE3+Q6PEY2+Q13885+Q9BVA1+Q9BUF5); test: Induction of microtubule depolymerization in human CCD-27Sk cells at 2 uM measured after 30 mins; format: cell-based
[7] = tested on: Jurkat; test: Induction of apoptosis in human Jurkat cells assessed as caspase3 activation; format: functional, cell-based
[8] = Antitumor activity against human MCF7 cells xenografted in nude mouse assessed as tumor growth inhibition at 7.5 mg/kg, ip qd administered every third day for 5 days in presence of CPT-11 relative to control; format: functional; conditions: 120 h, read-out: TGI
[9] = tested on: MCF7; test: Potentiation of taxotere-induced antitumor activity against human MCF7 cells xenografted in nude mouse assessed as tumor growth inhibition at 7.5 mg/kg, ip qd for 4 days measured on day 7; format: functional, organism-based
[10] = Antifungal activity against Trichophyton rubrum isolate 2 measured after 48 hrs by broth dilution method; format: functional
[11] = tested on: Trichophyton rubrum; test: Fungicidal activity against Trichophyton rubrum isolate 2 measured after 48 hrs by broth dilution method; format: functional; conditions: isolate 2, 48 h
[12] = tested on: Trichophyton mentagrophytes; test: Fungicidal activity against Trichophyton mentagrophytes isolate 1 measured after 48 hrs by broth dilution method; format: functional; conditions: isolate 1, 48 h
[13] = Antifungal activity against Epidermophyton floccosum isolate 1 measured after 48 hrs by broth dilution method; format: functional
[14] = tested on: Mus musculus; test: Antivascular activity against mouse N202 tumor spheroids expressing H2B-GFP allografted in mouse assessed as inhibition of tumor-induced central vasculature at 10 mg/kg, iv administered on day 13 as infusion for 5 mins measured on day 15 by fluorescence video microscopy; format: functional, organism-based
[15] = Toxicity in mouse allografted with mouse N202 tumor spheroids expressing H2B-GFP at 10 mg/kg, iv administered on day 12 as infusion for 5 mins; format: organism-based; conditions: in vivo
[16] = Toxicity in mouse allografted with mouse N202 tumor spheroids expressing H2B-GFP at 5 mg/kg, iv administered on day 12 as infusion for 2 mins; format: organism-based; conditions: in vivo
[17] = tested on: Rattus norvegicus; test: Effect on blood flow in rat muscle at 15 mg/kg, ip measured after 1 hr by [125I]iodoantipyrine based method relative to vehicle control; format: ADME, organism-based; conditions: in vivo
[18] = tested on: Rattus norvegicus; test: Effect on blood flow in rat brain at 15 mg/kg, ip measured after 1 hr by [125I]iodoantipyrine based method relative to vehicle control; format: ADME, organism-based; conditions: in vivo
[19] = tested on: Rattus norvegicus; test: Effect on blood flow in rat gut at 15 mg/kg, ip measured after 1 hr by [125I]iodoantipyrine based method relative to vehicle control; format: ADME, organism-based; conditions: in vivo
[20] = tested on: Rattus norvegicus; test: Reduction in blood flow in rat skin at 15 mg/kg, ip measured after 24 hrs by [125I]iodoantipyrine based method relative to vehicle control; format: ADME, organism-based; conditions: in vivo
[21] = tested on: Rattus norvegicus; test: Reduction in blood flow in rat spleen at 15 mg/kg, ip measured after 24 hrs by [125I]iodoantipyrine based method relative to vehicle control; format: ADME, organism-based; conditions: in vivo
[22] = tested on: Rattus norvegicus; test: Reduction in blood flow in rat gut at 15 mg/kg, ip measured after 24 hrs by [125I]iodoantipyrine based method relative to vehicle control; format: ADME, organism-based; conditions: in vivo
[23] = tested on: Rattus norvegicus; test: Increase in blood flow in rat skeletal muscle at 15 mg/kg, ip measured after 24 hrs by [125I]iodoantipyrine based method relative to vehicle control; format: ADME, organism-based; conditions: in vivo
[24] = Antimitotic activity in human MCF7 cells assessed as tubulin foci formation at mitotic block IC50 measured after 20 hrs by immunofluorescence analysis relative to control; format: functional
[25] = tested on: MCF7; test: Antimitotic activity in human MCF7 cells assessed as bipolar cells with uncompressed chromosomes at mitotic block IC50 measured after 20 hrs by immunofluorescence analysis relative to control; format: functional
[26] = tested on: MCF7; test: Antimitotic activity in human MCF7 cells assessed as microtubule polymer at twice mitotic block IC50 measured after 20 hrs by immunofluorescence analysis relative to control; format: functional, cell-based
[27] = tested on: MCF7; test: Antimitotic activity in human MCF7 cells assessed as decrease in microtubule polymer formation measured after 20 hrs by immunofluorescence analysis relative to control; format: functional, cell-based
[28] = molecular target: T1, Tubulin (Homo sapiens); test: Induction of microtubule instability in human MCF7 cells assessed as time spent for shortening at IC25 for mitotic block measured after 20 hrs by immunofluorescence analysis; format: cell-based
[29] = molecular target: T1, Tubulin (Homo sapiens); test: Induction of microtubule instability in human MCF7 cells assessed as time spent for attenuation at IC25 for mitotic block measured after 20 hrs by immunofluorescence analysis; format: cell-based
[30] = molecular target: T1, Tubulin (Homo sapiens); test: Induction of microtubule instability in human MCF7 cells assessed as rescue frequency at IC25 for mitotic block measured after 20 hrs by immunofluorescence analysis; format: cell-based
[31] = molecular target: T1, Tubulin (Homo sapiens); test: Induction of microtubule instability in human MCF7 cells assessed as mean growth rate at IC50 for mitotic block measured after 20 hrs by immunofluorescence analysis; format: cell-based
[32] = molecular target: T1, Tubulin (Homo sapiens); test: Induction of microtubule instability in human MCF7 cells assessed as mean shortening rate at IC50 for mitotic block measured after 20 hrs by immunofluorescence analysis; format: cell-based
[33] = molecular target: T1, Tubulin (Homo sapiens); test: Induction of microtubule instability in human MCF7 cells assessed as time spent for growth at IC50 for mitotic block measured after 20 hrs by immunofluorescence analysis; format: cell-based
[34] = molecular target: T1, Tubulin (Homo sapiens); test: Induction of microtubule instability in human MCF7 cells assessed as time spent for shortening at IC50 for mitotic block measured after 20 hrs by immunofluorescence analysis; format: cell-based
[35] = molecular target: T1, Tubulin (Homo sapiens); test: Induction of microtubule instability in human MCF7 cells assessed as rescue frequency at IC50 for mitotic block measured after 20 hrs by immunofluorescence analysis; format: cell-based
[36] = molecular target: T1, Tubulin (Homo sapiens); test: Induction of microtubule dynamic instability in human MCF7 cells at IC50 for mitotic block measured after 20 hrs by immunofluorescence analysis; format: cell-based
[37] = molecular target: T1, Tubulin (Homo sapiens); test: Time required for induction of microtubule dynamic instability in human MCF7 cells at IC50 for mitotic block measured after 20 hrs by immunofluorescence analysis; format: cell-based
[38] = Antitumor activity against human A549 cells xenografted in nude mouse assessed as tumor growth inhibition at 7.5 mg/kg, ip qd administered every third day for 5 days in presence of CPT-11 relative to control; format: functional; conditions: 120 h, read-out: TGI
[39] = molecular target: Cyclin-dependent kinase 1/cyclin B1 (Homo sapiens) (UniProt P06493+P14635); conditions: 10 uM
Chain of Cyclin-dependent kinase 1/cyclin B1 (Homo sapiens) (P06493 whole entry, looked up): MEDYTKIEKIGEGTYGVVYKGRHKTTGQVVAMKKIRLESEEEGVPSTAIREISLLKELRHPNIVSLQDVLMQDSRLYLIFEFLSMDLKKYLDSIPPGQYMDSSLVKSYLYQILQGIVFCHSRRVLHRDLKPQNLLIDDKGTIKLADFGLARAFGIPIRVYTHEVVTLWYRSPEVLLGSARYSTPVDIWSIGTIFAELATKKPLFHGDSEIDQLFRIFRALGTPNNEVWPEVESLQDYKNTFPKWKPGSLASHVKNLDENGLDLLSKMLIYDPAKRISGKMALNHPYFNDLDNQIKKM
Chain of Cyclin-dependent kinase 1/cyclin B1 (Homo sapiens) (P14635 whole entry, looked up): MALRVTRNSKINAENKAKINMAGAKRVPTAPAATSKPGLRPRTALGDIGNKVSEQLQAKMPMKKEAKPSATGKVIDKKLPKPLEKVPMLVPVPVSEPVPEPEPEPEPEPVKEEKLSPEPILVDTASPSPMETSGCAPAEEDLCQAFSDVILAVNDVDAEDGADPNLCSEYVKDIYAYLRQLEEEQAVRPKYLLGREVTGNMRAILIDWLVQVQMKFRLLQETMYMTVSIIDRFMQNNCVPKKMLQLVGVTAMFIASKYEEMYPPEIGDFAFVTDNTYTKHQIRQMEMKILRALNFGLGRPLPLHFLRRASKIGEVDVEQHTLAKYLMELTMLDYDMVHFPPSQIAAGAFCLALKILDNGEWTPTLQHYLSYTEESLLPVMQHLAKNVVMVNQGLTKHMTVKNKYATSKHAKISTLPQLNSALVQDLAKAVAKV
Description: Inhibition of human CDK1/human cyclinB at 10 uM in presence of ATP

CC(C)(C)c1[nH]cnc1/C=c1\[nH]c(=O)/c(=C/c2ccccc2)[nH]c1=O [PLINABULIN]
inhibition (INH) [1]: 82.5 - 88% | Activity [2]: Active | EC50 [3]: 13.8 nM | EC50 [4]: > 20000 nM | IC50 [5]: 10.5 to 23 nM | Activity [6]: Active | Activity [7]: Dose-dependent effect | inhibition in vivo at 7.5 mg/kg [8]: 26 to 81% | TGI [9]: Active | MIC [10]: < 0.03 µg/mL | MFC [11]: 0.125 µg/mL (≈ 0.372 µM) | MFC [12]: > 16 µg/mL | MIC [13]: > 16 µg/mL | inhibition [14]: Active | Activity [15]: Non-Toxic | Activity [16]: Non-Toxic | Activity [17]: Non-Toxic | Activity [18]: Non-Toxic | Activity [19]: Non-Toxic | Activity [20]: Toxic | Activity [21]: Toxic | Activity [22]: Toxic | Activity [23]: Toxic | Activity [24]: 73% | Activity [25]: Active | Activity [26]: Active | Activity [27]: Dose-dependent effect | Activity [28]: 20.5% | TIME [28]: 0.00333 h | Activity [29]: 49.8% | TIME [29]: 0.0122 h | Activity [30]: 2.79 min⁻¹ | Activity [31]: 10.6 um/min | Activity [32]: 34.1 um/min | Activity [33]: 33% | TIME [33]: 0.005 h | Activity [34]: 20.9% | TIME [34]: 0.00367 h | Activity [35]: 2.6 min⁻¹ | Activity [36]: 10.6 um/min | TIME [37]: 0.552 h | inhibition in vivo at 7.5 mg/kg [38]: 74% | inhibition [39]: > 50%
